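The compound was tested at five concentrations on cells cultured in 96-well plates, with a 48-hour exposure period. Here, GI50 denotes the concentration required for 50% inhibition of growth.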 Active and inactive are the calls of the source. No stated cut-off is given here; in the data, active = GI50 up to about 1.1 µM and inactive = higher.
What was measured:
Assay in all cases: growth of human tumour cells (NCI), 48 h
SF-539 = test system: SF-539
MDA-N = test system: MDA-N
BT-549 = test system: BT-549
SK-MEL-28 = test system: SK-MEL-28
SNB-19 = test system: SNB-19
HL-60 = test system: HL-60
OVCAR-5 = test system: OVCAR-5
DU-145 = test system: DU-145
U-251 = test system: U-251
MCF7 = test system: MCF7
K562 = test system: K562
NCI-H460 = test system: NCI-H460
SF-295 = test system: SF-295
T47D = test system: T47D
OVCAR-4 = test system: OVCAR-4
NCI-H522 = test system: NCI-H522
HCC 2998 = test system: HCC 2998
LOX IMVI = test system: LOX IMVI
HOP-62 = test system: HOP-62
SF-268 = test system: SF-268
UACC-62 = test system: UACC-62
A549 = test system: A549
COLO 205 = test system: COLO 205
NCI-H226 = test system: NCI-H226
UACC-257 = test system: UACC-257
SN12C = test system: SN12C
KM12 = test system: KM12
CCRF-CEM = test system: CCRF-CEM
RXF 393 = test system: RXF 393
HOP-92 = test system: HOP-92
SK-MEL-5 = test system: SK-MEL-5
M14 = test system: M14
UO-31 = test system: UO-31
IGROV-1 = test system: IGROV-1
MDA-MB-435 = test system: MDA-MB-435
HCT-15 = test system: HCT-15
EKVX = test system: EKVX
SK-OV-3 = test system: SK-OV-3
HCT-116 = test system: HCT-116
SR = test system: SR
SNB-75 = test system: SNB-75
MDA-MB-231 = test system: MDA-MB-231
Malme-3M = test system: Malme-3M
ACHN = test system: ACHN
CAKI-1 = test system: CAKI-1
A498 = test system: A498
OVCAR-3 = test system: OVCAR-3
NCI-H23 = test system: NCI-H23
NCI/ADR-RES = test system: NCI/ADR-RES
SW-620 = test system: SW-620
Hs-578T = test system: Hs-578T
SK-MEL-2 = test system: SK-MEL-2
HT-29 = test system: HT-29
TK-10 = test system: TK-10
MOLT-4 = test system: MOLT-4
786-0 = test system: 786-0
OVCAR-8 = test system: OVCAR-8

CC(=O)c1[nH]c(Nc2ccc(C)cc2)c(C(=S)Nc2ccccc2)c1N
GI50 (SF-539): 29.2 µM (inactive)
GI50 (MDA-N): 16 µM (inactive)
GI50 (BT-549): 15.6 µM (inactive)
GI50 (SK-MEL-28): 19.5 µM (inactive)
GI50 (SNB-19): 16.8 µM (inactive)
GI50 (HL-60): 15.8 µM (inactive)
GI50 (OVCAR-5): 32.9 µM (inactive)
GI50 (DU-145): 16.3 µM (inactive)
GI50 (U-251): 14.4 µM (inactive)
GI50 (MCF7): 15.7 µM (inactive)
GI50 (K562): 9.31 µM (inactive)
GI50 (NCI-H460): 15.7 µM (inactive)
GI50 (SF-295): 17.8 µM (inactive)
GI50 (T47D): 12.8 µM (inactive)
GI50 (OVCAR-4): 17.5 µM (inactive)
GI50 (NCI-H522): 15.6 µM (inactive)
GI50 (HCC 2998): 18.6 µM (inactive)
GI50 (LOX IMVI): 16.4 µM (inactive)
GI50 (HOP-62): 20.8 µM (inactive)
GI50 (SF-268): 14.5 µM (inactive)
GI50 (UACC-62): 16.2 µM (inactive)
GI50 (A549): 14.9 µM (inactive)
GI50 (COLO 205): 23.9 µM (inactive)
GI50 (NCI-H226): 14.4 µM (inactive)
GI50 (UACC-257): 18.5 µM (inactive)
GI50 (SN12C): 18.8 µM (inactive)
GI50 (KM12): 15.9 µM (inactive)
GI50 (CCRF-CEM): 21 µM (inactive)
GI50 (RXF 393): 13.3 µM (inactive)
GI50 (HOP-92): 13 µM (inactive)
GI50 (SK-MEL-5): 15.6 µM (inactive)
GI50 (M14): 17.1 µM (inactive)
GI50 (UO-31): 13.2 µM (inactive)
GI50 (IGROV-1): 16.8 µM (inactive)
GI50 (MDA-MB-435): 15 µM (inactive)
GI50 (HCT-15): 18.3 µM
GI50 (EKVX): 24.3 µM (inactive)
GI50 (SK-OV-3): 34.3 µM (inactive)
GI50 (HCT-116): 16.7 µM (inactive)
GI50 (SR): 22.3 µM (inactive)
GI50 (SNB-75): 19.9 µM (inactive)
GI50 (MDA-MB-231): 16.5 µM (inactive)
GI50 (Malme-3M): 17.1 µM (inactive)
GI50 (ACHN): 18.8 µM (inactive)
GI50 (CAKI-1): 16.9 µM (inactive)
GI50 (A498): 13.8 µM (inactive)
GI50 (OVCAR-3): 15.2 µM (inactive)
GI50 (NCI-H23): 17.8 µM (inactive)
GI50 (NCI/ADR-RES): 26.8 µM (inactive)
GI50 (SW-620): 28.4 µM (inactive)
GI50 (Hs-578T): 20 µM (inactive)
GI50 (SK-MEL-2): 15.5 µM (inactive)
GI50 (HT-29): 25.8 µM (inactive)
GI50 (TK-10): 17.3 µM (inactive)
GI50 (MOLT-4): 30.1 µM (inactive)
GI50 (786-0): 17.7 µM (inactive)
GI50 (OVCAR-8): 18.1 µM (inactive)
